This data set is described as follows: Solubility of surfactants in liquid propellant (non-volatile residue of saturated supernatant). The conditions noted are these: for NVR result (quantity of dissolved surfactant in the propellant): equilibrated at 20° C., excess surfactant in 200 g liquid propellant. It is filed as physicochemical. How it is done:
The solubility of various surfactants in R-134a and R-152a was investigated. The solubility was investigated by adding an excess of the surfactant (around 2 grams) to 200 g of the liquid propellant in a pressurised vessel. The vessel was equilibrated at 20° C. for a period of a few hours before decanting a weighed sample of the saturated supernatant liquid propellant through a filter into a clean vessel. The propellant was slowly removed by evaporation and the residue taken up in a small quantity of dichloromethane. The dichloromethane containing the dissolved residue was transferred to a weighed platinum crucible and heated (up to around 100° C.) to remove the solvent. The weighed, solvent-free residue represented the quantity of dissolved surfactant in the propellant.

For the substance Span 80, the “NVR result (quantity of dissolved surfactant in the propellant)” value (Refrigerant 134a (R-134a)) was determined as 0.07% and the “NVR result (quantity of dissolved surfactant in the propellant)” value (Refrigerant 152a (R-152a)) stood at 0.22%. Moreover, the Observation result (Refrigerant 152a (R-152a), 20° C.) is given as “Sunk to the bottom”. The “Solubility in R-152a in comparison with R134a” value (comparison of Table 1 values) is “significant increases in solubility”.

For the origin of these results see US20200179310A1, “COMPOSITIONS COMPRISING SALBUTAMOL SULPHATE” (MEXICHEM AMANCO HOLDING S.A. DE C.V., priority 2013, published 2020).
